Values joined by “and” are separate entries in the source; they are usually repeats but may differ in a detail not shown here. Equal values may be shown once. Where a name gives a salt, the structure may show the parent alone. Marks after values point to notes of the source that are not given here.
Experiments:
EphrinB2-EphB4 = biological target: T1, EphrinB2-EphB4 (Homo sapiens, UniProt P54760); assay: Octet 80 sec association/500 sec dissociation, immobilized human EphrinB2-Fc binding to soluble human EphB4-His; settings: for EphB4 Inhibition Percent, Inhibition of Association ONLY: at 3.2 μM and 80 seconds; for EphB4 Inhibition Percent, Inhibition of Association ONLY / EphB4 Inhibition Percent, Inhibition of Association-Dissociation: immobilized human EphrinB2, 25 nM soluble human EphB4; for EphB4 Inhibition Percent, Inhibition of Association-Dissociation: at 3.2 μM and 580 seconds
T1 construct: soluble human EphB1-His, EphB2-His, and EphB4-His ectodomains; commercially available human EphrinB1-Fc (EB1), EphrinB2-Fc (EB2), and EphrinB3-Fc (EB3) ectodomain proteins; purchased
T1 sequence (P54760 16-539 limits assumed): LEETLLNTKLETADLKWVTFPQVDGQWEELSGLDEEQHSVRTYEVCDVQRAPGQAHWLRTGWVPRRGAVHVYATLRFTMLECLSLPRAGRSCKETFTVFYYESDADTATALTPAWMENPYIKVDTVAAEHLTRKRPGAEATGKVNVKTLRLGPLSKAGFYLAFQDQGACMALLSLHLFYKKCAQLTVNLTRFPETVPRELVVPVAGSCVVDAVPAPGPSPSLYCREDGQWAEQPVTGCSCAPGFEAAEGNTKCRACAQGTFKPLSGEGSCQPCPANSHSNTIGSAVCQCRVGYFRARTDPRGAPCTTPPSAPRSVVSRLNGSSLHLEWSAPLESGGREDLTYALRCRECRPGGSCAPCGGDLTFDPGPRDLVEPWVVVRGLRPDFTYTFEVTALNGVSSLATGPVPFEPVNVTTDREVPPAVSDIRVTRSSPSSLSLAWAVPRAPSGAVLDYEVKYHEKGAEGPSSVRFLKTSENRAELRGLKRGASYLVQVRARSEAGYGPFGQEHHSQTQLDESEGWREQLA
Method: (§1) In another experiment, whether certain A20 analogs might have specificity for different Eph receptors was tested. An Octet RED384 system was used to obtain biophysical ON-OFF binding data (association-dissociation) for the three different human EphrinB2-EphB1, EphrinB2-EphB2, and EphrinB2-EphB4 protein-protein interactions and to assess the effect of A20 chemicals on the binding kinetics.
(§2) FIGS. 72A-72C show three example Octet sensorgram response traces for the immobilized human EphrinB2 ectodomain protein binding to soluble forms of the human EphB1, EphB2, and EphB4 ectodomain proteins, in the absence or presence of an A20 chemical (buffer conditions are always PBSTD:PBS with 0.05% Tween-20, 1% DMSO, and +/− indicated chemical). After loading EphrinB2-Fc protein to Octet AHC biosensors, washing, and obtaining stable baseline measurements in the appropriate PBSTD (either with or without indicated chemical), the sensors are placed in its buffer that also contains the indicated soluble EphB protein for the association step (0-80″), and then returned to its buffer for the dissociation step (81″-580″). In each figure (FIGS. 72A-72C), a sensorgram run using 10 μM of the 2×HCl salt form of A20-I is compared to the no compound control run to exemplify the maximum level of reduced response signal typically obtained with a potent A20 chemical.
(§3) Because the response levels during the dissociation step plateau for the EphrinB2-EphB2 and EphrinB2-EphB1 interactions by the first 80″, AUCs were also calculated for run data encompassing the first 160″ of each experiment to account for both the 80″ association data (red asterisks) and the first 80″ of dissociation data (marked by green line and asterisks).
(§4) The selectivity of another A20 analog (a 3×HCL salt form of compound BQPB4) in comparison to previously tested compound, A20-1, was tested as described in Example 27 above.
(§5) Further to the experiments listed above, a series of dose-response experiments were conducted to determine the IC50 of a selected A20 chemical (A20-1) on the kinetics of human EphrinB2 ligand ectodomain protein binding to its cognate human EphB1, EphB2, and EphB4 receptor ectodomain proteins. FIG. 74A-74C are representative sensorgrams showing the effect of 0, 0.1, 0.2, 0.4, 0.8, 1.6, and 3.2 μM, concentrations of the 2×HCl salt of A20-I along with a 10 μM max standard (also A20-1) on three different Ephrin-EphB interactions (e.g., EphB1 in FIG. 74A, EphB2 in FIG. 74B and EphB4 in FIG. 74C). […] Additional IC50 values were determined at specific timepoints, at 75″ into the association step and at 55″ into the dissociation step (135″).
(§6) All absolute and relative IC50 values are provided in the Table 6 below, where absolute are based off the full binding sensorgram traces, and relative are based off of the max control traces.
(§7) In another experiment, the % inhibition for various A20 analog chemicals against the three different EphrinB2-EphB protein interactions was determined. Specifically, the percent inhibition for immobilized human EphrinB2-Fc binding to 25 nM soluble human EphB1-His (FIG. 76A, enlarged in FIG. 76D), EphB2-His (FIG. 76B, enlarged in FIG. 76E), and EphB4-His (FIG. 76C, enlarged in FIG. 76F) with 3511-I, 8009-9255, QTM-Br, A19, A19-NO2, and IM (all at 3.2 μM) was determined.

EphrinB2-EphB1 = biological target: T2, EphrinB2-EphB1 (Homo sapiens, UniProt P54762); assay: Octet 80 sec association/500 sec dissociation, immobilized human EphrinB2-Fc binding to soluble human EphB1-His; settings: for EphB1 Inhibition Percent, Inhibition of Association ONLY: at 3.2 μM and 80 seconds; for EphB1 Inhibition Percent, Inhibition of Association ONLY / EphB1 Inhibition Percent, Inhibition of Association-Dissociation: immobilized human EphrinB2, 25 nM soluble human EphB1; for EphB1 Inhibition Percent, Inhibition of Association-Dissociation: at 3.2 μM and 580 seconds
T2 construct: soluble human EphB1-His, EphB2-His, and EphB4-His ectodomains; commercially available human EphrinB1-Fc (EB1), EphrinB2-Fc (EB2), and EphrinB3-Fc (EB3) ectodomain proteins; purchased
T2 sequence (P54762 18-540 limits assumed): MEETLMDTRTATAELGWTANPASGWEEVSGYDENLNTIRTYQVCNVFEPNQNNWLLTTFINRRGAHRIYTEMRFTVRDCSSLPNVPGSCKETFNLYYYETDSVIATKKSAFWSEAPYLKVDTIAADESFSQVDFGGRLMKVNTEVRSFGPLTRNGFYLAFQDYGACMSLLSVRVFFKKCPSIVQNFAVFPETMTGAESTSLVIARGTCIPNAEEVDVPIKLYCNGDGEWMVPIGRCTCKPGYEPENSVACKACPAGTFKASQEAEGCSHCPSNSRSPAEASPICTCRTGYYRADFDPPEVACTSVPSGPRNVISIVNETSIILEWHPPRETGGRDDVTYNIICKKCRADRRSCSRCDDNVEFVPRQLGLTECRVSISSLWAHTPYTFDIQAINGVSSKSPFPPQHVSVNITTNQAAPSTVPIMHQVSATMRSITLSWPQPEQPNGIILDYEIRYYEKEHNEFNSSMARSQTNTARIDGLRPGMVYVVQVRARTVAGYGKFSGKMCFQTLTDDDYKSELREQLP
Method: as §1, §2, §3, §4, §5, §6, §7

EphrinB2-EphB2 = biological target: T3, EphrinB2-EphB2 (Homo sapiens, UniProt P29323); assay: Octet 80 sec association/500 sec dissociation, immobilized human EphrinB2-Fc binding to soluble human EphB2-His; settings: for EphB2 Inhibition Percent, Inhibition of Association ONLY: at 3.2 μM and 80 seconds; for EphB2 Inhibition Percent, Inhibition of Association ONLY / EphB2 Inhibition Percent, Inhibition of Association-Dissociation: immobilized human EphrinB2, 25 nM soluble human EphB2; for EphB2 Inhibition Percent, Inhibition of Association-Dissociation: at 3.2 μM and 580 seconds; for % Inhibition: Association + Dissociation (160 sec) / % Inhibition: Association ONLY (80 sec): EphB2, 25 nM EphB2, 3.2 μM compound, A20-I as max control, 0* = less than 0, no inhibition
T3 construct: soluble human EphB1-His, EphB2-His, and EphB4-His ectodomains; commercially available human EphrinB1-Fc (EB1), EphrinB2-Fc (EB2), and EphrinB3-Fc (EB3) ectodomain proteins; purchased
T3 sequence (P29323 19-543 limits assumed): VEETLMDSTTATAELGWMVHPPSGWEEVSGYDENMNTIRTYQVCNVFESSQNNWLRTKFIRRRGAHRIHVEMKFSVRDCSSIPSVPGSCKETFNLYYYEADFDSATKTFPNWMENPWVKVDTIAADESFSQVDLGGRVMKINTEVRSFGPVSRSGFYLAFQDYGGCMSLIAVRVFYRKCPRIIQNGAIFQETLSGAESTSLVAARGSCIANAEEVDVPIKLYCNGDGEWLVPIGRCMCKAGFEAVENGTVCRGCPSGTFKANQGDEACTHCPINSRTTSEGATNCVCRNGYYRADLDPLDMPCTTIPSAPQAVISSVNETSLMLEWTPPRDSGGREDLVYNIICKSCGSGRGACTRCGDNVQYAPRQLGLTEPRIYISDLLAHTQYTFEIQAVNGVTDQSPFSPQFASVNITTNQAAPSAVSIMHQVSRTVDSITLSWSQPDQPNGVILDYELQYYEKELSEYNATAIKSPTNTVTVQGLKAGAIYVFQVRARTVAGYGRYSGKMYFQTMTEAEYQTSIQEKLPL
Method: as §1, §2, §3, §4, §5, §6, §7

[1] = EphB4, 25 nM EphB4, 3.2 μM compound, A20-I as max control, 0* = less than 0, no inhibition
[2] = EphB1, 25 nM EphB1, 3.2 μM compound, A20-I as max control, 0* = less than 0, no inhibition
[3] = listed as A20-1.2xMSA, methanesulfonate

Row | SMILES | EphB4 Inhibition Percent, Inhibition of Association ONLY (EphrinB2-EphB4) | EphB4 Inhibition Percent, Inhibition of Association-Dissociation (EphrinB2-EphB4) | EphB1 Inhibition Percent, Inhibition of Association ONLY (EphrinB2-EphB1) | EphB1 Inhibition Percent, Inhibition of Association-Dissociation (EphrinB2-EphB1) | EphB2 Inhibition Percent, Inhibition of Association ONLY (EphrinB2-EphB2) | EphB2 Inhibition Percent, Inhibition of Association-Dissociation (EphrinB2-EphB2) | also measured
1 | COc1ccccc1N1CCN(Cc2cc(I)c(O)c3ncccc23)CC1 [Compound 71-A, 7-iodo-5-((4-(2-methoxyphenyl)piperazin-1-yl)methyl)quinolin-8-ol dihydrochloride] | 17.5% | 35.6% | 39.6% | 52.3% | 58.7% | 73.2% | 
2 | Oc1cccc2cccnc12 [Compound 102, 8-Hydroxyquinoline, reference compound] | 0*% | 0*% | 0*% | 0*% | 0*% | 0*% | % Inhibition: Association + Dissociation (160 sec) (EphrinB2-EphB4; [1]): 0* %; % Inhibition: Association ONLY (80 sec) (EphrinB2-EphB4; [1]): 0* %; % Inhibition: Association + Dissociation (160 sec) (EphrinB2-EphB1; [2]): 0* %; % Inhibition: Association ONLY (80 sec) (EphrinB2-EphB1; [2]): 0* %; inhibition of EphrinB2-EphB interactions (EphrinB2-EphB2; 3.2 μM, EphB1, EphB2 and EphB4): unable to disrupt any of the EphrinB2-EphB interactions; % Inhibition: Association + Dissociation (160 sec) (EphrinB2-EphB2): 0* %; % Inhibition: Association ONLY (80 sec) (EphrinB2-EphB2): 0* %
3 | Oc1c(I)cc(CN2CCOCC2)c2cccnc12 [Compound 89, 4-((8-hydroxy-7-iodoquinolin-1-ium-5-yl)methyl)morpholin-4-ium methanesulfonate] |  |  |  |  |  |  | EphB4 Inhibition Percent, Inhibition of Association ONLY (EphrinB2-EphB4; methanesulfonate): 1.7%; EphB4 Inhibition Percent, Inhibition of Association-Dissociation (EphrinB2-EphB4; methanesulfonate): 25.4%; % Inhibition: Association + Dissociation (160 sec) (EphrinB2-EphB1; EphB1, 25 nM EphB1, 3.2 μM compound, A20-I as max control, 0* = less than 0, no inhibition, listed as A20-1.2xMSA, methanesulfonate): 46.3%; EphB1 Inhibition Percent, Inhibition of Association ONLY (EphrinB2-EphB1; methanesulfonate): 28.4%; EphB1 Inhibition Percent, Inhibition of Association-Dissociation (EphrinB2-EphB1; methanesulfonate): 46.3%; % Inhibition: Association + Dissociation (160 sec) (EphrinB2-EphB2; [3]): 74.6%; % Inhibition: Association ONLY (80 sec) (EphrinB2-EphB2; [3]): 55.1%; EphB2 Inhibition Percent, Inhibition of Association ONLY (EphrinB2-EphB2; methanesulfonate): 55.1%; EphB2 Inhibition Percent, Inhibition of Association-Dissociation (EphrinB2-EphB2; methanesulfonate): 74.6%
4 | Oc1ccc(CN2CCN(Cc3ccc(C(F)(F)F)cc3)CC2)c2cccnc12 [Compound 49, 8-hydroxy-5-((4-(4-(trifluoromethyl)benzyl)piperazin-1-ium-1-yl)methyl)quinolin-1-ium chloride] | 0*/0*% | 0% and 2.8% |  | 19.8% and 39.0% | 21.3% and 24.9% | 46.2% and 36.2% | 
5 | Oc1ccc(CN2CCN(C3CCCC3)CC2)c2cccnc12 [Compound 83, 5-((4-cyclopentylpiperazin-1-yl)methyl)quinolin-8-ol] | 0.5% | 0.5% | 21.4% | 23.6% | 20.9% | 21.2% | 

— patent US20260374739A1, “SMALL MOLECULAR WEIGHT CHEMICAL COMPOUND TO ANTAGONIZE EPH-EPHRIN TETRAMERIZATION AND INHIBIT BIDIRECTIONAL SIGNALING” (THE BOARD OF REGENTS OF THE UNIVERSITY OF TEXAS SYSTEM, priority 2022, published 2026)
